Data taken from patent US20080090805A1, “CB-1 MODULATING COMPOUNDS AND THEIR USE” (ACADIA PHARMACEUTICALS INC., priority 2005, published 2008).
Read-outs that look alike come from different tables or passages of the source.

Molecular target: native CB1 receptors (Rattus norvegicus, UniProt P20272)
Experiment: CB1 receptor rat binding assay ([3H]SR141716A, rat brain membranes)
Conditions: rat brain membranes
[1] = [3H]SR141716A, read-out: Binding rat pKi (converted)
[2] = 3 nM [3H]SR141716A, read-out: Rat Brain pKi (converted)

Sequence of native CB1 receptors (P20272 whole entry): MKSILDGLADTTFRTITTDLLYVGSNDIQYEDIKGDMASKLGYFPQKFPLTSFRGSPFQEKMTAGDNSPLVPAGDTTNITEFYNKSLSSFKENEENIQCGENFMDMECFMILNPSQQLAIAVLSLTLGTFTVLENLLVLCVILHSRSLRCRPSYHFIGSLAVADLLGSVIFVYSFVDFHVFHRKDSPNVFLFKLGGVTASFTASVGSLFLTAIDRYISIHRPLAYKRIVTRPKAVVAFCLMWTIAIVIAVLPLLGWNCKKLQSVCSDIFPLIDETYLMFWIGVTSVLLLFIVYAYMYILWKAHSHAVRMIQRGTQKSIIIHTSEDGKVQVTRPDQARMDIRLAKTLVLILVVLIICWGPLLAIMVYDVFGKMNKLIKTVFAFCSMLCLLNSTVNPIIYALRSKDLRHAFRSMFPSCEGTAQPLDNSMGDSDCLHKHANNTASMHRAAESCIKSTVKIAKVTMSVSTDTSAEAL

| Compound | Ki [1] [nM] | Ki [2] [nM] | Binding rat Inh % ([3H]SR141716A) [%] | Binding rat pKi ([3H]SR141716A) |
| --- | --- | --- | --- | --- |
| CCC1=Nc2cc(C(=O)NCCc3ccc(OC)c(OC)c3)ccc2Sc2ccccc21 | 63.1 |  |  |  |
| O=C(NN1CCCCC1)c1ccc2c(c1)N=C(c1ccc(Cl)cc1)c1ccccc1O2 | 79.4 |  |  |  |
| Cc1ccc(N2CCN(C(=O)c3ccc4c(c3)N=C(Cl)c3ccccc3S4)CC2)c(C)c1 [Example 12] |  | 251 |  |  |
| Cc1ccc(N2CCN(C(=O)c3ccc4c(c3)N=C(c3ccc(Cl)cc3)c3ccccc3S4)CC2)c(C)c1 [Example 19] |  | 50.1 |  |  |
| O=C(NCCc1cccc(Cl)c1)c1ccc2c(c1)N=C(c1ccc(F)cc1)c1ccccc1S2 [drawing 1179] | 12.6 |  |  |  |
| O=C(NCc1cccnc1)c1ccc2c(c1)N=C(c1ccc(Br)cc1)c1ccccc1S2 [drawing 1180] | 12.6 |  | 72 |  |
| O=C(NCc1cccc(Cl)c1)c1ccc2c(c1)N=C(N1CCCCC1)c1cc(F)ccc1S2 [drawing 1181] | 12.6 |  |  |  |
| Cc1ccsc1C1=Nc2cc(C(=O)NN3CCCCC3)ccc2Sc2ccccc21 [drawing 1182] | 12.6 |  | 59 |  |
| CCCCNC(=O)c1ccc2c(c1)N=C(c1ccc(Cl)cc1)c1ccc(Cl)cc1S2 [drawing 1187] | 12.6 |  | 94 |  |
| CC(C)CCNC(=O)c1ccc2c(c1)N=C(c1ccccc1Cl)c1ccccc1S2 [drawing 1188] | 12.6 |  | 116 |  |
| CCCNC(=O)c1ccc2c(c1)N=C(c1cccc(Cl)c1)c1ccccc1S2 [drawing 1189] | 12.6 |  | 86 |  |
| O=C(Cc1ccccc1)NNC(=O)c1ccc2c(c1)N=C(c1ccc(F)cc1)c1ccccc1S2 [drawing 1190] | 12.6 |  | 65 |  |
| O=C(NCCc1ccc(Cl)cc1)c1ccc2c(c1)N=C(N1CCC(F)CC1)c1ccccc1S2 [drawing 1195] | 12.6 |  |  |  |
| CC(CNC(=O)c1ccc2c(c1)N=C(c1cccc(Cl)c1)c1cc(F)ccc1S2)c1ccccc1 (stereo not drawn) [drawing 1196] | 12.6 |  |  |  |
| CC(CNC(=O)c1ccc2c(c1)N=C(c1ccccc1)c1ccccc1S2)c1ccccc1 (stereo not drawn) [drawing 1197] | 12.6 |  |  |  |
| Cc1ccsc1C1=Nc2cc(C(=O)NCCC(F)(F)F)ccc2Sc2ccccc21 [drawing 1198] | 12.6 |  | 103 |  |
| CC(C)CNC(=O)c1ccc2c(c1)N=C(c1ccc(Cl)s1)c1ccccc1S2 [drawing 1201] |  |  |  | 8.6 |
| O=C(NCCc1cccnc1)c1ccc2c(c1)N=C(c1ccc(F)cc1)c1ccccc1S2 [drawing 1203] | 12.6 |  | 96 |  |
| O=C(NCc1ccc(Cl)cc1Cl)c1ccc2c(c1)N=C(c1ccccc1)c1ccccc1S2 [drawing 1204] | 12.6 |  |  |  |
| CCCCNC(=O)c1ccc2c(c1)N=C(c1ccc(Cl)cc1)c1ccccc1[S+]2[O-] (stereo not drawn) [drawing 1205] | 12.6 |  |  |  |
| O=C(NCCCc1ccccc1)c1ccc2c(c1)N=C(c1ccccc1F)c1ccccc1S2 [drawing 1206] | 12.6 |  |  |  |
| O=C(NCc1ccc(Cl)cc1Cl)c1ccc2c(c1)N=C(c1ccc(F)cc1)c1ccccc1S2 [drawing 1211] | 12.6 |  |  |  |
| O=C(NCc1ccc(F)cc1)c1ccc2c(c1)N=C(N1CCCCC1)c1ccccc1S2 [drawing 1212] | 12.6 |  |  |  |

| Compound | Ki [1] [nM] | Ki [2] [nM] | Binding rat Inh % ([3H]SR141716A) [%] | Binding rat pKi ([3H]SR141716A) |
| --- | --- | --- | --- | --- |
| CC(CNC(=O)c1ccc2c(c1)N=C(c1ccccc1F)c1ccccc1S2)c1ccccc1 (stereo not drawn) [drawing 1214] | 15.8 |  |  |  |
| O=C(NCc1ccccc1)c1ccc2c(c1)N=C(c1ccccc1)c1ccccc1S2 [drawing 1219] | 15.8 |  |  |  |
| O=C(NCCc1ccncc1)c1ccc2c(c1)N=C(c1ccc(F)cc1)c1ccccc1S2 [drawing 1220] | 15.8 |  | 103 |  |
| O=C(NCc1cccnc1)c1ccc2c(c1)N=C(c1cccc(F)c1)c1ccccc1S2 [drawing 1221] | 15.8 |  | 84 |  |
| O=C(NCCc1cccc(Cl)c1)c1ccc2c(c1)N=C(N1CCCCC1)c1ccccc1S2 [drawing 1222] | 15.8 |  |  |  |
| Cc1ccc(CNC(=O)c2ccc3c(c2)N=C(c2ccc(Cl)s2)c2ccccc2S3)o1 [drawing 1223] | 0.501 |  | 106 |  |
| O=C(NC1CCC(F)(F)CC1)c1ccc2c(c1)N=C(c1ccc(Cl)s1)c1ccccc1S2 [drawing 1224] | 0.631 |  | 107 |  |
| Cc1ccsc1C1=Nc2cc(C(=O)NCCCC(F)(F)F)ccc2Sc2ccccc21 [drawing 1225] | 0.631 |  | 109 |  |
| O=C(NCCCC(F)(F)F)c1ccc2c(c1)N=C(c1ccc(Cl)cc1)c1ccccc1S2 [drawing 1226] | 0.631 |  | 89 |  |
| O=C(NCc1cccs1)c1ccc2c(c1)N=C(c1ccccc1F)c1ccccc1S2 [drawing 1227] | 15.8 |  | 94 |  |
| O=C(NCCc1ccc(Cl)cc1)c1ccc2c(c1)N=C(c1ccccc1F)c1ccccc1S2 [drawing 1228] | 15.8 |  |  |  |
| CC(C)CNC(=O)c1ccc2c(c1)N=C(c1ccc(Cl)cn1)c1ccc(F)cc1S2 [drawing 1229] | 15.8 |  | 87 |  |
| CCCCNC(=O)c1ccc2c(c1)N=C(c1ccc(Cl)cn1)c1cc(F)ccc1S2 [drawing 1230] | 15.8 |  | 83 |  |
| Cc1ccc(CNC(=O)c2ccc3c(c2)N=C(c2cccc(Cl)c2)c2ccccc2S3)o1 [drawing 1231] | 0.631 |  | 85 |  |
| Cc1csc(CNC(=O)c2ccc3c(c2)N=C(c2ccc(Cl)s2)c2ccccc2S3)c1 [drawing 1232] | 0.794 |  | 90 |  |
| O=C(NCCCC(F)(F)F)c1ccc2c(c1)N=C(c1ccsc1)c1ccccc1S2 [drawing 1233] | 0.794 |  | 97 |  |
| Cc1csc(CNC(=O)c2ccc3c(c2)N=C(c2cccc(F)c2)c2ccccc2S3)c1 [drawing 1234] | 0.794 |  | 89 |  |
| CCCCNC(=O)c1ccc2c(c1)N=C(c1cccc(Cl)c1)c1cc(Cl)ccc1S2 [drawing 1235] | 15.8 |  | 89 |  |
| CCCNC(=O)c1ccc2c(c1)N=C(c1ccc(Cl)s1)c1ccccc1S2 [drawing 1236] | 15.8 |  | 89 |  |
| COc1cccc(C2=Nc3cc(C(=O)NCCC(F)(F)F)ccc3Sc3ccccc32)n1 [drawing 1237] | 15.8 |  | 91 |  |
| CCCCNC(=O)c1ccc2c(c1)N=C(c1ccc(F)cc1)c1ccccc1S2 [drawing 1238] | 15.8 |  |  |  |
| Cc1ccc(CNC(=O)c2ccc3c(c2)N=C(c2ccc(F)cc2)c2ccccc2S3)o1 [drawing 1239] | 0.794 |  | 108 |  |
| CC(C)CCNC(=O)c1ccc2c(c1)N=C(c1cccc(F)c1)c1ccccc1S2 [drawing 1240] | 0.794 |  | 99 |  |

| Compound | Ki [1] [nM] | Ki [2] [nM] | Binding rat Inh % ([3H]SR141716A) [%] | Binding rat pKi ([3H]SR141716A) |
| --- | --- | --- | --- | --- |
| O=C(NC1CCC(F)(F)CC1)c1ccc2c(c1)N=C(c1cccc(Cl)c1)c1ccccc1S2 [drawing 1242] | 1 |  | 79 |  |
| CCCCNC(=O)c1cc2c(cc1C)Sc1ccccc1C(c1ccc(Cl)cc1)=N2 [drawing 1243] | 15.8 |  | 119 |  |
| CCCCNC(=O)c1ccc2c(c1)N=C(c1sccc1C)c1ccccc1S2 [drawing 1244] | 15.8 |  | 103 |  |
| CCN(CCNC(=O)c1ccc2c(c1)N=C(c1ccccc1)c1ccccc1S2)c1ccccc1 [drawing 1245] | 15.8 |  |  |  |
| CCCCNC(=O)c1ccc2c(c1)N=C(c1ccc(F)cn1)c1ccccc1S2 [drawing 1246] | 15.8 |  | 87 |  |
| CCCCNC(=O)c1ccc2c(c1)N=C(c1ccc(Cl)cc1)c1sccc1S2 [drawing 1247] | 1 |  | 97 |  |
| O=C(NCCCC(F)(F)F)c1ccc2c(c1)N=C(c1cccc(F)c1)c1ccccc1S2 [drawing 1248] | 1 |  | 83 |  |
| O=C(NC1CCC(F)(F)CC1)c1ccc2c(c1)N=C(c1cccc(F)c1)c1ccccc1S2 [drawing 1249] | 1 |  | 112 |  |
| O=C(NCCC(F)(F)F)c1ccc2c(c1)N=C(c1cccc(Cl)c1)c1ccccc1S2 [drawing 1250] | 1 |  | 88 |  |
| Cc1ccsc1C1=Nc2cc(C(=O)NCCC(C)C)ccc2Sc2ccccc21 [drawing 1251] | 15.8 |  | 88 |  |
| O=C(NCc1ccco1)c1ccc2c(c1)N=C(c1cccc(F)c1)c1ccccc1S2 [drawing 1252] | 15.8 |  | 93 |  |
| O=C(NCc1ccccc1)c1ccc2c(c1)N=C(N1CCCCC1)c1ccccc1S2 [drawing 1253] | 15.8 |  |  |  |
| CC(C)CNC(=O)c1ccc2c(c1)N=C(c1ccc(F)cn1)c1ccccc1S2 [drawing 1254] | 15.8 |  | 97 |  |
| Cc1csc(CNC(=O)c2ccc3c(c2)N=C(c2sccc2C)c2ccccc2S3)c1 [drawing 1255] | 1 |  | 93 |  |
| O=C(NCc1cccs1)c1ccc2c(c1)N=C(c1ccc(Cl)s1)c1ccccc1S2 [drawing 1256] | 1.26 |  | 98 |  |
| O=C(NCc1cccc(Cl)c1)c1ccc2c(c1)N=C(c1ccc(Cl)cc1)c1ccccc1S2 [drawing 1257] | 1.26 |  |  |  |
| O=C(NC1CCC(F)(F)CC1)c1ccc2c(c1)N=C(c1ccc(F)cc1)c1ccccc1S2 [drawing 1258] | 1.26 |  | 94 |  |
| CCCNC(=O)c1ccc2c(c1)N=C(c1ccc(Br)cc1)c1ccccc1S2 [drawing 1259] | 15.8 |  | 65 |  |
| O=C(NCc1cccnc1)c1ccc2c(c1)N=C(c1ccc(Cl)cc1)c1ccccc1S2 [drawing 1260] | 15.8 |  | 76 |  |
| C[C@@H]1CCC[C@H](C)N1NC(=O)c1ccc2c(c1)N=C(c1cccc(F)c1)c1ccccc1S2 [drawing 1261] | 20 |  | 91 |  |
| CCCNC(=O)c1ccc2c(c1)N=C(c1ccc(F)cc1)c1ccccc1S2 [drawing 1262] | 20 |  | 87 |  |
| Cc1csc(CNC(=O)c2ccc3c(c2)N=C(c2cccc(C)n2)c2ccccc2S3)c1 [drawing 1263] | 1.58 |  | 94 |  |
| O=C(NCc1cccc(Cl)c1)c1ccc2c(c1)N=C(c1cccc(Cl)c1)c1ccccc1S2 [drawing 1264] | 1.58 |  |  |  |
